Experimental findings from PMC12040169 (PLOS Biology, 2025) are described below.

This series can be described thus: in vitro. The following applies: human, hela cells, % viability.

SMILES strings stand for the structures.

Take `CN1CCCc2cc(-c3cncn3CC(=O)NC(C)(C)C)ccc21` [CBK281700]: the viability (commonly a read-out of living cells in per cent, often relative to untreated cells) at 28.5 h, 10 µM turned out to be 95%. On the same count and under the same terms, in the case of `CC(=O)N1CCC(C(=O)N2CCC(C(=O)NC(c3ccccn3)c3cccs3)CC2)CC1` (stereo not drawn) [CBK060118] it was 95%. The same measure, in the same setting: in the case of `Cc1cc(CN(C)Cc2ccc(N3CCCC3)c(F)c2)n[nH]1` [CBK281953] it was 104%.

`O=C(CNS(=O)(=O)c1ccc(F)cc1)N1CCOCC1` [CBK042214]: the viability at 28.5 h, 10 µM came to 97.7%.

In the case of `CCN1CCN(CCCOc2ccccc2Cc2ccccc2)CC1` [CBK267379G], the viability at 28.5 h, 10 µM turned out to be 95%. As to `Cc1cc(/C=C2\C(=O)NC(=O)N(c3cccc(F)c3)C2=O)c(C)n1-c1cc(C(=O)O)cc(C(=O)O)c1` [CBK264041], for the setting “bulk resorufin, single well”, the viability at 28.5 h, 10 µM turned out to be 97.3%. As to `C=C(C)CNC(=O)c1ccc(C)nc1N1CCN(C(=O)c2ccco2)CC1` [CBK076401], the viability at 28.5 h, 10 µM worked out at 94.8%. Consider `Cc1ccc(C(=O)N2CCCN(C(=O)CN3CCCC3)C2)cc1` [CBK039081], for which the viability at 28.5 h, 10 µM is 87.2%. Still for that read-out and setting: next, `O=C(N/N=C\c1ccccc1C(F)(F)F)c1ccc(=O)[nH]n1` [CBK263389]: 100%.

Consider `Cc1cc(Br)ccc1NC(=O)c1cnc2sccn2c1=O` [CBK246520], for which the viability at 28.5 h, 10 µM is 112%. Take `COc1ccccc1CC(C)NC(=O)c1ccnn1C(C)C` (stereo not drawn) [CBK282595]: the viability at 28.5 h, 10 µM is 86.9%. Still for that read-out and setting: next, `COc1ccc(C(O)Cc2nc3ccccc3n2Cc2ccc(Cl)cc2)cc1` (stereo not drawn) [CBK262143]: 86.2%; `CC(Oc1ccc(Cl)cc1Cl)C(=O)Nc1ccc(N2CCN(C)CC2)c(Cl)c1` (stereo not drawn) [CBK268563]: 85%; `CC(=O)N1CCN(c2ccc(NC(=O)c3cccc4c(Br)cccc34)cc2Cl)CC1` [CBK269624]: 93.8%.

Take `Cc1ccc(-c2ccc(CCC(=O)O)[nH]2)cc1` [CBK264820]: the viability at 28.5 h, 10 µM came to 109%.

As to `O=c1oc2ccccc2c(NCCN2CCCCC2)c1[N+](=O)[O-]` [CBK218805], the viability at 28.5 h, 10 µM is 92%. On the same count and under the same terms, next, `Cc1cccc(CCN2CCC3(CC2)NCCc2c3[nH]c3ccc(Br)cc23)c1` [CBK039280]: 83.3%; `OCc1ccc(-n2cc(-c3ccc(F)cc3F)nn2)cc1` [CBK112982]: 89.2%. On the same count and under the same terms, in the case of `Cc1nn(-c2ccccn2)c2c1-c1oncc1CC2` [CBK287280] it was 90.7%; in that of `O=C(O)c1ccccc1SC1CCc2ccccc2NC1=O` (stereo not drawn) [CBK286683], 83.1%. On the same count and under the same terms, in the case of `Cc1cccnc1C1(O)CCN(C(=O)Cc2ccccc2Cl)CC1` [CBK283682] it was 98.7%; in that of `CS(=O)(=O)c1ccc(-c2ccc(N)c3ccccc23)cc1` [CBK084326], 95.4%; in that of `O=C(CC1C(=O)N(Cc2ccccc2)C(=S)N1Cc1ccccc1)Nc1ccccc1` (stereo not drawn) [CBK263871], 97.3%. Regarding `c1ccc(-c2nnc3sc(-c4ccccn4)nn23)cc1` [CBK267344], the viability at 28.5 h, 10 µM was determined as 96.2%. Same read-out and setting: in the case of `CN(C)CCN(C)c1cncc(-c2ccc(Cl)cc2)n1` [CBK065724] it was 93%; in that of `CC(C)c1nnc(NS(=O)(=O)Cc2ccccc2)s1` [CBK045540], 93%. As for `COc1ccc(Nc2nccc3c2nnn3C)cc1` [CBK287879], the viability at 28.5 h, 10 µM was determined as 80.9%. Still for that read-out and setting: next, `O=C(Nc1ccnn1Cc1cccs1)N1Cc2cnn(CCO)c2C1` [CBK307150]: 89.7%; `CCc1nnc(SCC(=O)N2c3ccccc3Sc3ccccc32)[nH]1` [CBK268687]: 110%. For the compound `Cc1ccc(OCC(=O)NC(=S)Nc2cccc(-c3nc4ncccc4o3)c2C)cc1` [CBK263925], the viability at 28.5 h, 10 µM came to 109%. The same measure, in the same setting: in the case of `CCOC(=O)c1c(NC(=O)CSc2nnc(C)s2)sc2c1CCC2` [CBK263183] it was 91.2%; in that of `COC(=O)c1c(NC(=O)CSc2nnc3ccccn23)sc(C)c1C` [CBK265943], 95.7%. On the same count and under the same terms, in the case of `Cc1nc2c(C(=O)NCCCOC(C)C)cnn2c(C)c1Cc1cccc(Cl)c1` [CBK162043] it was 97.1%; in that of `CCOc1sc(=S)n(C)c1C(C)=O` [CBK019515], 88%; in that of `Cc1ccc(NC(=O)CSc2cc(-n3nc(C)cc3C)ncn2)cc1` [CBK287820], 89%.

Turning to `O=C1COC[C@H]([C@H](O)c2ccc(NC(=O)c3cnccn3)cc2)N1` [CBK289673], the viability at 28.5 h, 10 µM was 104%.

On to `CCCCN(CC(F)(F)F)C(=O)Cc1csc(NC(=O)C(C)C)n1` [CBK306217], for which the viability at 28.5 h, 10 µM amounted to 99.5%. Still for that read-out and setting: in the case of `FC(F)(F)c1nc2ccccc2nc1SCCOc1ccccc1` [CBK103726] it was 102%; in that of `CCNC(=O)c1cc2c(=O)n3ccccc3nc2n(C)c1=N` [CBK287762], 90.7%; in that of `CC(C)[C@H]1SC(NC[C@H](C)c2ccccc2)=NC1=O` [CBK074034], 93.6%. On the same count and under the same terms, in the case of `COc1cccc2cc(C(=O)N3CCN(CCO)CC3)c(=O)oc12` [CBK293932] it was 89.5%.

Regarding `CNC(=O)c1ccc(OC)c(S(=O)(=O)NC)c1` [CBK270153], the viability at 28.5 h, 10 µM turned out to be 88.9%. Still for that read-out and setting: in the case of `O=C1C=CC2=C3Oc4c(ccc5cc(O)ccc45)C(c4ccccc4C(=O)O)C3C=CC2=C1` (stereo not drawn) [CBK278169N] it was 82.8%; in that of `CCCc1nc(CN2CCNC(=O)C2c2ccccc2C(F)(F)F)no1` (stereo not drawn) [CBK304123], 93.2%. Same read-out and setting: next, `O=C(Cn1nc2n(c1=O)CCCCC2)NCc1ccccc1Cl` [CBK304642]: 86.6%; `Cc1ccc(CN(Cc2ncc[nH]2)C2CC(C)(C)NC(C)(C)C2)o1` [CBK283191]: 96%; `Cn1nc(C(=O)NCC(c2ccccc2Cl)N2CCOCC2)ccc1=O` (stereo not drawn) [CBK305886]: 87.3%. Same read-out and setting: next, `Cc1nc(O)cc(C2CCCN(C(=O)c3scc4c3CCCC4)C2)n1` (stereo not drawn) [CBK306969]: 88.5%; `O=C1CC[C@@H](NCc2cccnc2)[C@H](c2cc(F)cc(F)c2)N1` [CBK283130]: 90.9%; `COCCNC(=O)c1cc(-c2cccc(N(C)C)c2)cnc1NCC1CC1` [CBK076288]: 93.9%. Consider `Cc1cc(Cl)c(S(=O)(=O)NCc2cccs2)cc1OCC(N)=O` [CBK266496], for which the viability at 28.5 h, 10 µM worked out at 101%. Still for that read-out and setting: in the case of `O=S1(=O)C=C(N2CCCCCC2)CC1` [CBK025571C] it was 85.7%. Still for that read-out and setting: next, `COc1cc(S(=O)(=O)N2CCC(C(N)=O)CC2)ccc1Br` [CBK268766]: 82.6%; `COc1cc(C(=O)N2CCC3(CC2)CC(=O)c2ccc(-c4ccccc4)cc2O3)cc(OC)c1C` [CBK169037]: 89.9%; `Cc1cc(N(C)CCc2ccccc2)nc2cc(Cl)ccc12` [CBK262221]: 93.9%.

In the case of `COc1cc(/C=C2\C(=O)N(c3ccccc3Cl)N=C2c2ccccc2)ccc1O` [CBK265698], the viability at 28.5 h, 10 µM came out at 82.8%. On the same count and under the same terms, next, `O=C(c1ccno1)N1CCc2ccccc21` [CBK200409]: 104%; `COc1ccccc1CN1CCc2[nH]c(=S)[nH]c(=O)c2C1` [CBK288495]: 104%.

Consider `O=C(NCc1ccccn1)c1ccc(NS(=O)(=O)c2cccc(Cl)c2)cc1` [CBK267249], for which the viability at 28.5 h, 10 µM is 111%. The same measure, in the same setting: next, `CC1(c2ccc(Br)cc2)NC(=O)CS1` (stereo not drawn) [CBK018962]: 92.2%. On the same count and under the same terms, in the case of `CNC(=O)[C@@H]1CN(Cc2ccccc2)C[C@H]1C(=O)c1ccc(F)cc1` [CBK282902] it was 110%. The same measure, in the same setting: in the case of `O=C(CCN1CCOCC1)Nc1ccc(Cl)cc1` [CBK263820] it was 98.8%. For the compound `COc1cccc(C2CC(c3cccc(Cl)c3)n3nc(N)nc3N2)c1` (stereo not drawn) [CBK293966], the viability at 28.5 h, 10 µM came out at 85.1%. On the same count and under the same terms, next, `Cc1cc2oc(=O)cc(C)c2cc1NC(=O)c1ccccc1C(=O)O` [CBK286572]: 92.1%. The same measure, in the same setting: in the case of `COc1ccccc1C(=O)NCCCc1nc2ccccc2[nH]1` [CBK269837] it was 87.1%. Still for that read-out and setting: next, `Cc1nc2ncnc(N3CCc4ccccc43)c2[nH]1` [CBK291228]: 89.2%; `Cn1cc(C(=O)N2CCC3(C/C=C/C[C@H]4COCC[C@H]4NC(=O)CNC3=O)CC2)cn1` [CBK292069]: 103%; `O=C(CSc1ccc2ccccc2c1)NCc1ccco1` [CBK269699]: 80.3%. For `CC1OCCC12CN(c1cc(CO)c(F)cn1)CCO2` (stereo not drawn) [CBK304775], the viability at 28.5 h, 10 µM is 102%.

On to `Clc1ccc(CN2CCC(Oc3nccnc3OC3CCCCC3)CC2)cc1` [CBK082856T], for which the viability at 28.5 h, 10 µM came out at 101%. Regarding `CN1CCC(N(C)C(=O)NCc2cccnc2)C1` (stereo not drawn) [CBK156001], the viability at 28.5 h, 10 µM turned out to be 93.5%. Still for that read-out and setting: next, `O=c1c2ccccc2nc2n1CCN(Cc1ccc(F)c(F)c1)CC2` [CBK284816]: 96.6%; `CCCC(=O)N1CCC(c2nc3ccccn3c2NC(C)(C)C)CC1` [CBK284744]: 81.9%.

On to `O=C(COc1ccc(-c2ccccc2)cc1)N/N=C/c1ccncc1` [CBK262210], for which the viability at 28.5 h, 10 µM turned out to be 93.2%. On to `CC(Cc1ccsc1)NS(=O)(=O)c1cccc(C(=O)N2CCCC2)c1` (stereo not drawn) [CBK306923], for which the viability at 28.5 h, 10 µM was 85.8%.

For the compound `CC(C)[C@@H](CO)n1c(=O)[nH]c2ncc(-c3ccc(N4CCOCC4)cc3)nc21` [CBK064770], the viability at 28.5 h, 10 µM was 110%. Same read-out and setting: next, `Cc1n[nH]c(C)c1CCC(=O)N/N=C/c1ccc(O)cc1` [CBK262927]: 109%; `Cc1ccccc1OCCSc1nc2ccccc2n1CCO` [CBK262523]: 98.1%; `COc1ccc(CN[C@H]2[C@H](O)[C@@H](N3CCN(C(C)=O)CC3)[C@@H]3OC[C@H]2O3)cc1` [CBK288808]: 96.9%. On the same count and under the same terms, next, `COc1ccc(/C=C(\C)C(=O)Nc2c(OC)cc(F)cc2OC2CCNCC2)cc1OC` [CBK050353T]: 98.6%; `Cc1cc(C)nc(Nc2ncc(O)n2-c2ccccc2)n1` [CBK287914]: 93.5%.
